Measured values taken from patent US12116358B2, “Substituted indoles and methods of use thereof” (EPIZYME, INC., priority 2018, dated 2024).
Like-named read-outs stand apart in the source and are kept apart here.

Experiments:
[1] = test system: H3K36me3 in A549 cells; test: In-Cell Western (ICW) assay of SETD2 inhibitors (A549 assay); assay type: cell-based, human; conditions: A549 cells, read-out: SETD2 A549
Experimental: In-Cell Western (ICW) Assay of SETD2 Inhibitors (A549 Assay)
Representative Compounds of the Disclosure were tested in the A549 assay according the following protocol.
1. Reagents and Consumables:
Prepare plates with compounds. Seed A549 cells to the plates with compounds, 4,000 cells/well, 50 μl/well. Put the plates at room temperature on a non-vibrating surface for 20 minutes before placing in the incubator. Incubate the plate at 37° C. incubator with CO2 for 3 days. Remove plate from incubator and bring to room temperature. Blot media out of the plate and add 50 μL of ice cold 100% methanol. Incubate 30 minutes at room temperature. Remove methanol by aspiration. Wash 3× with PBST. Add 50 μL of Blocking Buffer+0.1% Tween 20. Incubate 1 hour. Remove Blocking Buffer, wash 3× with PBST. Add 20 μL of H3K36me3 (1:1000 dilution). […] Incubate overnight at 4° C. Wash plate 5× with PBS-T. Add 20 μL of DRAQ5 (1:1000) and IRDye 800CW Goat anti-Rabbit IgG (1:500). Incubate for 1 hour in the dark. Wash plate 5× with PBS-T. Wash plate 3× with water. Dry by blotting on paper towel, then centrifuge plate upside down on a thin layer of paper towels for 1 minute at 1000 rpm to remove excess reagent. Leave plate uncovered for ˜10 minutes out of direct light before reading. Read on Licor instrument.
4. Licor Instrument Settings:
Preset: Plate; Resolution: 84 μm; Quality: low; Focus offset: 4.0; 700 channel intensity: 2; and 800 channel intensity: 3.

[2] = biological target: T1, SETD2(1434-1711) (Homo sapiens, UniProt Q9BYW2); test: SETD2 (1434-1711) assay; assay type: biochemical; conditions: read-out: SETD2 (1434-1711)
T1 construct: SETD2 (1434-1711) Assay; catalogue N/A
T1 sequence (Q9BYW2 1434-1711): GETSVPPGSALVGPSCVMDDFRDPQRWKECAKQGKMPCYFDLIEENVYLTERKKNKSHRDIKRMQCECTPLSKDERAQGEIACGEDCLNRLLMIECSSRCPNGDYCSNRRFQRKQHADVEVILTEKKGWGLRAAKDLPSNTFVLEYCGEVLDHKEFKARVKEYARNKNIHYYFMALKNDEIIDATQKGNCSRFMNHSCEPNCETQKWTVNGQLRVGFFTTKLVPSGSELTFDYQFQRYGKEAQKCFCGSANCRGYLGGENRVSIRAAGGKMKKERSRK

Row | IC50 [1] [nM] | IC50 [2] [nM] | IC50 ([1]; Homo sapiens) [nM] | SMILES
1 | 100 | 10 | – | Cc1ccc(F)c2cc(C(=O)Nc3cc(F)cc(N4CCC(N(C)CCF)C4)c3)[nH]c12 (stereo not drawn) [compound 47]
2 | 100 | 20 | – | Cc1ccc(F)c2cc(C(=O)Nc3cc(F)cc(N4CCOC(CO)C4)c3)[nH]c12 (stereo not drawn) [compound 48]
3 | 100 | 30 | – | Cc1ccc(F)c2cc(C(=O)Nc3cccc(N4CCN(C(=O)c5cccnc5)CC4)c3)[nH]c12 [compound 49]
4 | 100 | 60 | – | Cc1ccc(F)c2cc(C(=O)Nc3cccc(N4CCOC(CCO)C4)c3)[nH]c12 (stereo not drawn) [compound 50]
5 | 100 | 20 | – | Cc1ccc(F)c2cc(C(=O)Nc3cccc([C@@H]4CCN5C(=O)CC[C@@H]5C4)c3)[nH]c12 [compound 51]
6 | 100 | 70 | – | CC(=O)N1CCN(c2cccc(NC(=O)c3cc4c(F)ccc(C)c4[nH]3)c2F)CC1 [compound 52]
7 | 100 | 5 | – | Cc1ccc(F)c2cc(C(=O)Nc3cc(F)cc(N4CCC(N(C)C)C4)c3)[nH]c12 (stereo not drawn) [compound 53]
8 | – | 30 | 100 | Cc1ccc(F)c2cc(C(=O)Nc3cccc(N4CCN5C(=O)N(C)CC5C4)c3)[nH]c12 (stereo not drawn) [compound 54]
9 | – | 50 | 100 | Cc1ccc(F)c2cc(C(=O)Nc3cccc(N4CCN(C(=O)N(C)C)CC4)c3)[nH]c12 [compound 55]
10 | 100 | 30 | – | CC(=O)N1CCC(c2cc(F)cc(NC(=O)c3cc4c(F)ccc(C)c4[nH]3)c2)C1 (stereo not drawn) [compound 56]
11 | 100 | 30 | – | Cc1ccc(F)c2cc(C(=O)Nc3cccc(N4CCC5(CC4)COC5)c3)[nH]c12 [compound 57]
12 | 100 | 40 | – | Cc1ccc(F)c2cc(C(=O)Nc3cccc(N4CCN(C)C(=O)C4)c3)[nH]c12 [compound 58]
13 | 100 | 10 | – | Cc1ccc(F)c2cc(C(=O)Nc3cccc(N4CCC(N(C)C)C4)c3)[nH]c12 (stereo not drawn) [compound 59]
14 | 100 | 10 | – | Cc1ccc(F)c2cc(C(=O)Nc3cccc(N4C[C@H](O)[C@@H](N(C)C)C4)c3)[nH]c12 [compound 61]
15 | 100 | 9 | – | Cc1ccc(F)c2cc(C(=O)Nc3cc(F)cc(N4CCN(C(=O)CN(C)C)CC4)c3)[nH]c12 [compound 62]
16 | 100 | 20 | – | Cc1ccc(F)c2cc(C(=O)Nc3cccc(N4CC(F)C(N(C)C)C4)c3)[nH]c12 (stereo not drawn) [compound 63]
17 | 200 | 6 | – | Cc1ccc(F)c2cc(C(=O)Nc3cccc([C@H]4CC[C@H](N(C)C)CC4)c3)[nH]c12 [compound 68]
18 | 200 | 3 | – | Cc1ccc(F)c2cc(C(=O)Nc3cc(F)cc([C@H]4CC[C@@H](N(C)C)CC4)c3)[nH]c12 [compound 69]
19 | – | 9 | 200 | Cc1ccc(F)c2cc(C(=O)Nc3cc(F)cc(N4CCN(C(=O)CN(C)C)C(C)C4)c3)[nH]c12 (stereo not drawn) [compound 70]
20 | 200 | 40 | – | CCC1CN(c2cccc(NC(=O)c3cc4c(F)ccc(C)c4[nH]3)c2)CCN1C(C)=O (stereo not drawn) [compound 71]
21 | 200 | 30 | – | Cc1ccc(F)c2cc(C(=O)Nc3cccc(N4CCN(C(=O)CO)CC4)c3)[nH]c12 [compound 72]
22 | 200 | 40 | – | CC(=O)N1CCC(c2cccc(NC(=O)c3cc4c(F)ccc(C)c4[nH]3)c2)C1 (stereo not drawn) [compound 73]
23 | 200 | 30 | – | Cc1ccc(F)c2cc(C(=O)Nc3cccc(N4CCC(N5CCOCC5)C4)c3)[nH]c12 (stereo not drawn) [compound 74]
24 | 200 | 60 | – | COCCC(=O)N1CCN(c2cccc(NC(=O)c3cc4c(F)ccc(C)c4[nH]3)c2)CC1 [compound 75]
25 | 200 | 60 | – | CC(=O)N1CCN(c2cccc(NC(=O)c3cc4c(F)ccc(C)c4[nH]3)c2)CC1C(F)(F)F (stereo not drawn) [compound 77]
26 | 200 | 40 | – | CC(=O)N(C)C1CCN(c2cccc(NC(=O)c3cc4c(F)ccc(C)c4[nH]3)c2)CC1 [compound 78]
27 | 200 | 70 | – | CC(=O)N1CCN(c2cc(NC(=O)c3cc4c(F)ccc(C)c4[nH]3)ccc2F)CC1 [compound 79]

Row | IC50 [1] [nM] | IC50 [2] [nM] | IC50 ([1]; Homo sapiens) [nM] | SMILES
28 | 200 | 30 | – | COCc1nnc(-c2cccc(NC(=O)c3cc4c(F)ccc(C)c4[nH]3)c2)s1 [compound 81]
29 | 200 | 20 | – | COC(=O)N1CCC2(CC1)CCN(c1cccc(NC(=O)c3cc4c(F)ccc(C)c4[nH]3)c1)C2 [compound 83]
30 | 200 | 40 | – | CC(=O)N1CCN(c2cccc(NC(=O)c3cc4c(F)ccc(Br)c4[nH]3)c2)CC1 [compound 84]
31 | 200 | 5 | – | Cc1ccc(F)c2cc(C(=O)Nc3cccc(N4CCC5(CCCN5)CC4)c3)[nH]c12 [compound 86]
32 | – | 100 | 200 | Cc1ccc(F)c2cc(C(=O)Nc3cccc(N4CCC(C)(O)CC4)c3)[nH]c12 [compound 87]
33 | 200 | 50 | – | CCN1CCN(c2cccc(NC(=O)c3cc4c(F)ccc(C)c4[nH]3)c2)CC1=O [compound 88]
34 | – | 30 | 200 | Cc1ccc(F)c2cc(C(=O)Nc3cc(F)cc(C4CCN(C5CC(=O)N(C)C5)C4)c3)[nH]c12 (stereo not drawn) [compound 89]
35 | 200 | 30 | – | Cc1ccc(F)c2cc(C(=O)Nc3cccc([C@H]4CCN5C(=O)CC[C@H]5C4)c3)[nH]c12 [compound 90]
36 | 200 | 10 | – | Cc1ccc(F)c2cc(C(=O)Nc3cc(Cl)cc(N4CCN(C)CC4)c3)[nH]c12 [compound 91]
37 | 200 | 60 | – | Cc1ccc(F)c2cc(C(=O)Nc3cccc(N4CCN(C(=O)C5CC5)CC4)c3)[nH]c12 [compound 93]
38 | 200 | 20 | – | Cc1ccc(F)c2cc(C(=O)Nc3cccc(N4CC[C@@H](N(C)C)C4)c3)[nH]c12 [compound 94]
39 | – | 20 | 200 | Cc1ccc(F)c2cc(C(=O)Nc3cccc(N4CCC5(CC4)COCCN5)c3)[nH]c12 [compound 95]
40 | 200 | 40 | – | Cc1ccc(F)c2cc(C(=O)Nc3cc(F)cc([C@@H]4CCN5C(=O)CC[C@H]5C4)c3)[nH]c12 [compound 96]
41 | 200 | 40 | – | Cc1ccc(F)c2cc(C(=O)Nc3cccc(N4CCC(N(C)CCF)C4)c3)[nH]c12 (stereo not drawn) [compound 97]
42 | 200 | 9 | – | Cc1ccc(F)c2cc(C(=O)Nc3cccc(N4CCC5(CC4)CN(C)C5)c3)[nH]c12 [compound 98]
43 | 200 | 30 | – | Cc1ccc(F)c2cc(C(=O)Nc3cccc(N4CCC(N(C)C)C(C)C4)c3)[nH]c12 (stereo not drawn) [compound 99]
44 | 200 | 30 | – | Cc1ccc(F)c2cc(C(=O)Nc3cccc(N4CCN(C5CC5)C(=O)C4)c3)[nH]c12 [compound 100]
45 | 200 | 50 | – | Cc1ccc(F)c2cc(C(=O)Nc3cccc(C4CCOCC4)c3)[nH]c12 [compound 101]
46 | 200 | 20 | – | Cc1ccc(F)c2cc(C(=O)Nc3cccc(N4CC[C@H](N(C)C)C4)c3)[nH]c12 [compound 102]
47 | 200 | 30 | – | Cc1ccc(F)c2cc(C(=O)Nc3cccc(N4CCC(CO)(CO)CC4)c3)[nH]c12 [compound 103]
48 | 200 | 30 | – | CC(=O)N1CCCC12CCN(c1cc(F)cc(NC(=O)c3cc4c(F)ccc(C)c4[nH]3)c1)CC2 [compound 104]
49 | 200 | 8 | – | Cc1ccc(F)c2cc(C(=O)Nc3cc(F)cc(N4C[C@@H]5CCN(C)[C@@H]5C4)c3)[nH]c12 [compound 105]
50 | 200 | 3 | – | Cc1ccc(F)c2cc(C(=O)Nc3cc(Cl)cc([C@H]4CC[C@@H](N(C)C)CC4)c3)[nH]c12 [compound 106]
51 | 200 | 40 | – | Cc1ccc(F)c2cc(C(=O)Nc3cccc(-c4nnc(CO)s4)c3)[nH]c12 [compound 107]
52 | – | 60 | 200 | Cc1ccc(F)c2cc(C(=O)Nc3cccc(-c4cnco4)c3)[nH]c12 [compound 108]
53 | 200 | 10 | – | COCCN1CCC2(CC1)CN(c1cccc(NC(=O)c3cc4c(F)ccc(C)c4[nH]3)c1)C2 [compound 109]

Row | SMILES | IC50 [1] [nM] | IC50 [2] [nM] | IC50 ([1]; Homo sapiens) [nM]
54 | Cc1ccc(F)c2cc(C(=O)Nc3cccc(N4CCN(C(=O)CF)CC4)c3)[nH]c12 [compound 92] | 200 | 30 | –
